Laboratory results taken from ChEMBL document CHEMBL1201862, “PubChem BioAssay data set” (2004).
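A five-concentration, 48-hour dose response in 96-well plates underlies each endpoint, interpolated linearly between surrounding concentrations. Abbreviation: GI50, concentration required for 50% inhibition of growth.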 Activity calls are given as the source filed them. Rule as the data show it: active = GI50 up to about 1.1 µM and inactive = higher.

Legend:
Assay in all cases: growth of human tumour cells (NCI), 48 h
MDA-MB-435 = system: MDA-MB-435
DU-145 = system: DU-145
MDA-MB-231 = system: MDA-MB-231
ACHN = system: ACHN
MDA-N = system: MDA-N
SR = system: SR
RPMI-8226 = system: RPMI-8226
OVCAR-8 = system: OVCAR-8
HCT-15 = system: HCT-15
M14 = system: M14
OVCAR-4 = system: OVCAR-4
LOX IMVI = system: LOX IMVI
U-251 = system: U-251
SNB-19 = system: SNB-19
CCRF-CEM = system: CCRF-CEM
SN12C = system: SN12C
786-0 = system: 786-0
COLO 205 = system: COLO 205
Malme-3M = system: Malme-3M

Row | Compound | GI50 (MDA-MB-435) | GI50 (DU-145) | GI50 (MDA-MB-231) | GI50 (ACHN) | GI50 (MDA-N) | GI50 (SR) | GI50 (RPMI-8226) | GI50 (OVCAR-8) | GI50 (HCT-15) | GI50 (M14) | GI50 (OVCAR-4) | GI50 (LOX IMVI) | GI50 (U-251) | GI50 (SNB-19) | GI50 (CCRF-CEM) | GI50 (SN12C) | GI50 (786-0) | GI50 (COLO 205) | GI50 (Malme-3M)
1 | O=C1NC(=O)C(CCC(=O)c2cccc3ccccc23)C(=O)N1 | > 100 µM (inactive) | > 100 µM (inactive) | > 100 µM (inactive) | > 100 µM (inactive) | > 100 µM (inactive) | 85.3 µM (inactive) | 48.8 µM (inactive) | > 100 µM (inactive) | > 100 µM | > 100 µM (inactive) | > 100 µM (inactive) | > 100 µM (inactive) | > 100 µM (inactive) | > 100 µM (inactive) | > 10 µM (inactive) | > 100 µM (inactive) | > 100 µM (inactive) | > 100 µM (inactive) | –
2 | CC1(c2nc3ccccc3[nH]2)CCC(C(N)=O)C(C)(C)O1 (centres undefined) | > 100 µM (inactive) | > 100 µM (inactive) | > 100 µM (inactive) | > 100 µM (inactive) | > 100 µM (inactive) | > 100 µM (inactive) | > 100 µM (inactive) | > 100 µM (inactive) | > 100 µM | > 100 µM (inactive) | > 100 µM (inactive) | > 100 µM (inactive) | > 100 µM (inactive) | > 100 µM (inactive) | > 100 µM (inactive) | > 100 µM (inactive) | > 100 µM (inactive) | > 100 µM (inactive) | > 100 µM (inactive)
3 | Cc1cc(O)nc2c3c(ccc12)OC(C)(C)C=C3 | 1.82 µM (inactive) | 3.58 µM (inactive) | 5.78 µM (inactive) | > 31.6 µM (inactive) | 2.08 µM (inactive) | 2.44 µM (inactive) | 4.47 µM (inactive) | 7.59 µM (inactive) | 4.85 µM | 5.53 µM (inactive) | 18.6 µM (inactive) | – | 3.11 µM (inactive) | 4.55 µM (inactive) | 3.71 µM (inactive) | 5.98 µM (inactive) | 6.7 µM (inactive) | 2.89 µM (inactive) | 13.2 µM (inactive)
4 | COc1nc2ncc([C@@H](O)[C@H](O)CO)nc2c(=O)[nH]1 | > 100 µM (inactive) | > 100 µM (inactive) | > 100 µM (inactive) | > 100 µM (inactive) | > 100 µM (inactive) | > 100 µM (inactive) | > 100 µM (inactive) | > 100 µM (inactive) | > 100 µM | > 100 µM (inactive) | > 100 µM (inactive) | > 100 µM (inactive) | > 100 µM (inactive) | > 100 µM (inactive) | > 100 µM (inactive) | > 100 µM (inactive) | > 100 µM (inactive) | > 100 µM (inactive) | > 100 µM (inactive)
5 | COC1/C=C/C(C)C(C(C)C(OC)C(C)CCC(=O)C(C)C(C/C=C/N(C)C=O)OC)OC(=O)C=CC2OC2(C)CC(OC)C(OC)C2=CC(=O)O[C@@H](C(C)C(OC)CC(OC)/C=C/C(C)C(O)C1)[C@H]2O (some centres undefined) | 0.0137 µM (active) | 0.00938 µM (active) | 0.0032 µM (active) | 0.00313 µM (active) | 0.00471 µM (active) | 0.012 µM (active) | 0.00841 µM (active) | 0.00853 µM (active) | 0.00631 µM | 0.00333 µM (active) | 0.0208 µM (active) | 0.002 µM (active) | 0.0146 µM (active) | 0.0121 µM (active) | 0.00935 µM (active) | 0.00593 µM (active) | 0.00451 µM (active) | 0.0016 µM (active) | 0.00673 µM (active)
6 | COc1ccc(NC(=O)NNS(=O)(=O)c2ccc(C)cc2)cc1 | 30.4 µM (inactive) | > 100 µM (inactive) | > 100 µM (inactive) | 91.6 µM (inactive) | 32.7 µM (inactive) | 63 µM (inactive) | > 100 µM (inactive) | > 100 µM (inactive) | > 100 µM | > 100 µM (inactive) | 25.1 µM (inactive) | – | > 100 µM (inactive) | > 100 µM (inactive) | > 100 µM (inactive) | > 100 µM (inactive) | 0.792 µM (active) | > 100 µM (inactive) | > 100 µM (inactive)
7 | COc1ccc2c(c1)CCC(CN1CCN(CCOC(c3ccc(F)cc3)c3ccc(F)cc3)CC1)=C2 | 16.8 µM (inactive) | 19 µM (inactive) | 14.1 µM (inactive) | 13.3 µM (inactive) | 11.8 µM (inactive) | 3.71 µM (inactive) | 4.52 µM (inactive) | 18.8 µM (inactive) | 3.53 µM | 9.31 µM (inactive) | 24.8 µM (inactive) | 15.6 µM (inactive) | 14.8 µM (inactive) | 42.5 µM (inactive) | 14.1 µM (inactive) | 11.1 µM (inactive) | 11.9 µM (inactive) | 2.14 µM (inactive) | 14.4 µM (inactive)
8 | CC1CC[C@@]2(OC1)OC1C[C@H]3[C@@H]4CC[C@H]5CC(OC6OC(CO)C(OC7OC(CO)C(O)C(O)C7OC7OC(CO)C(O)C(O)C7O)C(O)C6O)CCC5(C)[C@H]4CCC3(C)C1[C@@H]2C (some centres undefined) | 2.65 µM (inactive) | 0.975 µM (active) | 0.929 µM (active) | 1.54 µM (inactive) | 2.86 µM (inactive) | 1.81 µM (inactive) | 1.88 µM (inactive) | 6.24 µM (inactive) | 10.3 µM | 3.34 µM (inactive) | 1.14 µM (inactive) | 1.76 µM (inactive) | 1.1 µM (active) | 3.37 µM (inactive) | 1.35 µM (inactive) | 2.01 µM (inactive) | 1.56 µM (inactive) | 0.955 µM (active) | 4.04 µM (inactive)
9 | C#CCSC(C=C=C)P(=O)(OC(C)C)OC(C)C (centres undefined) | > 100 µM (inactive) | > 100 µM (inactive) | > 100 µM (inactive) | 42.8 µM (inactive) | > 100 µM (inactive) | 39.5 µM (inactive) | 30.3 µM (inactive) | > 100 µM (inactive) | 30.5 µM | > 100 µM (inactive) | > 100 µM (inactive) | > 100 µM (inactive) | > 100 µM (inactive) | > 100 µM (inactive) | – | 32.4 µM (inactive) | 46.2 µM (inactive) | 58.5 µM (inactive) | 31.4 µM (inactive)
10 | N#Cc1nc(/C=C/c2cccs2)oc1N | > 100 µM (inactive) | > 100 µM (inactive) | > 100 µM (inactive) | 76.9 µM (inactive) | > 100 µM (inactive) | 13.1 µM (inactive) | 27.8 µM (inactive) | > 100 µM (inactive) | 94.4 µM | 97.5 µM (inactive) | – | > 100 µM (inactive) | 95.3 µM (inactive) | > 100 µM (inactive) | 25.4 µM (inactive) | > 100 µM (inactive) | > 100 µM (inactive) | – | –
11 | CCCC1CC(=O)NC(=O)C1C(=O)OC(C)(C)C (centres undefined) | > 100 µM (inactive) | > 100 µM (inactive) | > 100 µM (inactive) | > 100 µM (inactive) | > 100 µM (inactive) | 64.7 µM (inactive) | > 100 µM (inactive) | > 100 µM (inactive) | > 100 µM | – | > 100 µM (inactive) | > 100 µM (inactive) | > 100 µM (inactive) | > 100 µM (inactive) | – | > 100 µM (inactive) | > 100 µM (inactive) | > 100 µM (inactive) | > 100 µM (inactive)
12 | COC(=O)C12CCC(C(F)(F)C1=O)C2(C)C (centres undefined) | > 100 µM (inactive) | > 100 µM (inactive) | > 100 µM (inactive) | > 100 µM (inactive) | > 100 µM (inactive) | > 100 µM (inactive) | > 100 µM (inactive) | > 100 µM (inactive) | > 100 µM | > 100 µM (inactive) | > 100 µM (inactive) | > 100 µM (inactive) | > 100 µM (inactive) | > 100 µM (inactive) | – | > 100 µM (inactive) | > 100 µM (inactive) | > 100 µM (inactive) | > 100 µM (inactive)
13 | CN(C)CCNC(=O)Cn1cc([N+](=O)[O-])c(=O)c2ccccc21 | > 100 µM (inactive) | > 100 µM (inactive) | > 100 µM (inactive) | > 100 µM (inactive) | > 100 µM (inactive) | > 100 µM (inactive) | – | > 100 µM (inactive) | > 100 µM | > 100 µM (inactive) | – | – | > 100 µM (inactive) | > 100 µM (inactive) | > 100 µM (inactive) | > 100 µM (inactive) | > 100 µM (inactive) | > 100 µM (inactive) | > 100 µM (inactive)
14 | CCCCN1C(=O)C2Cc3c([nH]c4ccccc34)C(c3cccc(O)c3)N2C1=O (centres undefined) | 17.3 µM (inactive) | 18.6 µM (inactive) | 15.5 µM (inactive) | 19.8 µM (inactive) | 19.2 µM (inactive) | 20.5 µM (inactive) | 23.1 µM (inactive) | 18.9 µM (inactive) | 18.7 µM | 18.3 µM (inactive) | 18.7 µM (inactive) | 18 µM (inactive) | 19 µM (inactive) | 19.1 µM (inactive) | 18.2 µM (inactive) | 17.9 µM (inactive) | 18.9 µM (inactive) | 19.6 µM (inactive) | –
15 | Brc1ccc(-c2ccc(-c3ccc(-c4ccc(Br)s4)s3)s2)s1 | > 100 µM (inactive) | > 100 µM (inactive) | > 100 µM (inactive) | > 100 µM (inactive) | > 100 µM (inactive) | > 100 µM (inactive) | > 100 µM (inactive) | > 100 µM (inactive) | > 100 µM | > 100 µM (inactive) | > 100 µM (inactive) | > 100 µM (inactive) | > 100 µM (inactive) | – | > 100 µM (inactive) | > 100 µM (inactive) | > 100 µM (inactive) | > 100 µM (inactive) | –
